Assay results as given in the supplement of paper PMC13380429.

Key:
Settings in all cases: 72 h
[1] = test system: U2OS; assay: cell viability relative to DMSO; higher = less toxic
[2] = test system: Calu-3; assay: as above
[3] = test system: Caco-2; assay: as above
[4] = test system: Vero E6; assay: as above
[5] = test system: HepG2; assay: as above
[6] = test system: U2OS; assay: drug sensitivity score (DSS) for viability; higher = more toxic; extreme values may be limits of the assay
[7] = test system: Calu-3; assay: as above
[8] = test system: Caco-2; assay: as above
[9] = test system: Vero E6; assay: as above
[10] = test system: HepG2; assay: as above
[11] = test system: U2OS; assay: relative viability EC50 (midpoint between 100% and the lowest measured viability); higher = less toxic
[12] = test system: Calu-3; assay: as above
[13] = test system: Caco-2; assay: as above
[14] = test system: Vero E6; assay: as above
[15] = test system: HepG2; assay: as above

| SMILES | cell viability ([1]; 1 nM) [%] | cell viability ([1]; 10 nM) [%] | cell viability ([1]; 100 nM) [%] | cell viability ([1]; 1000 nM) [%] | cell viability ([1]; 10000 nM) [%] | cell viability ([2]; 1 nM) [%] | cell viability ([2]; 10 nM) [%] | cell viability ([2]; 100 nM) [%] | cell viability ([2]; 1000 nM) [%] | cell viability ([2]; 10000 nM) [%] | cell viability ([3]; 1 nM) [%] | cell viability ([3]; 10 nM) [%] | cell viability ([3]; 100 nM) [%] | cell viability ([3]; 1000 nM) [%] | cell viability ([3]; 10000 nM) [%] | cell viability ([4]; 1 nM) [%] | cell viability ([4]; 10 nM) [%] | cell viability ([4]; 100 nM) [%] | cell viability ([4]; 1000 nM) [%] | cell viability ([4]; 10000 nM) [%] | cell viability ([5]; 1 nM) [%] | cell viability ([5]; 10 nM) [%] | cell viability ([5]; 100 nM) [%] | cell viability ([5]; 1000 nM) [%] | cell viability ([5]; 10000 nM) [%] | drug sensitivity score [6] | drug sensitivity score [7] | drug sensitivity score [8] | drug sensitivity score [9] | drug sensitivity score [10] | relative viability EC50 [11] [µM] | relative viability EC50 [12] [µM] | relative viability EC50 [13] [µM] | relative viability EC50 [14] [µM] | relative viability EC50 [15] [µM] |
| --- | --- | --- | --- | --- | --- | --- | --- | --- | --- | --- | --- | --- | --- | --- | --- | --- | --- | --- | --- | --- | --- | --- | --- | --- | --- | --- | --- | --- | --- | --- | --- | --- | --- | --- | --- |
| COc1ccc(-n2nc(C(F)(F)F)cc2-c2ccc(Cl)cc2)cc1 [SC-560] | 102 | 99.9 | 104 | 98.8 | 100 | 104 | 104 | 109 | 95.3 | 108 | 101 | 99.1 | 95.7 | 92.2 | 86.6 | 98.2 | 105 | 92.6 | 100 | 44.3 | 106 | 104 | 104 | 91 | 87 | 0 | 0 | 0.2 | 3 | 0.6 | > 10 | > 10 | > 10 | 3.18 | > 10 |
| CC1(C)O[C@@H]2C[C@H]3[C@@H]4CCC5=CC(=O)C=C[C@]5(C)[C@@]4(F)[C@@H](O)C[C@]3(C)[C@]2(C(=O)CO)O1 [TRIAMCINOLONE ACETONIDE] | 99.4 | 95.7 | 94.6 | 90.7 | 95.2 | 98.4 | 95.4 | 87.6 | 103 | 106 | 94.2 | 96.2 | 96.8 | 89 | 93.1 | 102 | 99 | 95.3 | 97.4 | 100 | 103 | 91.3 | 94.6 | 101 | 93 | 0 | 0 | 0 | 0 | 0 | > 10 | > 10 | > 10 | > 10 | > 10 |
| C/C(=C\c1ccc(C(=O)O)cc1)c1ccc2c(c1)C(C)(C)CCC2(C)C [TTNPB] | 99.3 | 99.2 | 94.3 | 93.2 | 92.5 | 95 | 95.6 | 84.3 | 81.7 | 77.2 | 98.1 | 95.1 | 95 | 95.3 | 91.9 | 94.7 | 102 | 98.3 | 97.9 | 102 | 94.2 | 106 | 108 | 100 | 108 | 0 | 3.9 | 0 | 0 | 0 | > 10 | > 10 | > 10 | > 10 | > 10 |
| O=C(COc1cccc2c(=O)[nH]ccc12)c1ccccc1 [UPF-1069] | 102 | 101 | 95.1 | 103 | 93.9 | 98.2 | 101 | 92.9 | 96.8 | 90.2 | 95.6 | 92.5 | 94.8 | 87 | 84.5 | 94.2 | 108 | 107 | 93.8 | 94.6 | 97 | 95.6 | 98.5 | 89 | 88 | 0 | 0 | 0.8 | 0 | 0.1 | > 10 | > 10 | > 10 | > 10 | > 10 |
| O=C(Nc1cc(-c2ccccc2)nn1-c1ccccc1)c1ccc([N+](=O)[O-])cc1 [VU29] | 110 | 101 | 107 | 99 | 99 | 102 | 102 | 107 | 98.5 | 111 | 106 | 96.2 | 102 | 95 | 96.6 | 100 | 96.4 | 101 | 94.2 | 88.6 | 105 | 112 | 108 | 100 | 90.2 | 0 | 0 | 0 | 0.2 | 0 | > 10 | > 10 | > 10 | > 10 | > 10 |
| Cc1cccc(COc2cccc(/C=C3\C(=O)NN(c4ccccc4)C3=O)c2)c1 [Y16] | 99.5 | 98.4 | 97.9 | 93.6 | 97.8 | 104 | 104 | 97.3 | 102 | 102 | 100 | 97.9 | 101 | 93.6 | 100 | 98.5 | 96.7 | 98.8 | 96.8 | 87.8 | 92.8 | 93.5 | 98.3 | 103 | 87.6 | 0 | 0 | 0 | 0.2 | 0 | > 10 | > 10 | > 10 | > 10 | > 10 |
| O=C(O)Cc1ccc(OCCNC[C@H](O)c2ccccc2)cc1 [ZD-2079] | 102 | 94.8 | 107 | 98.5 | 104 | 98.5 | 92.7 | 105 | 98 | 96.2 | 92.1 | 102 | 104 | 99.3 | 95 | 104 | 100 | 98.8 | 102 | 100 | 109 | 110 | 107 | 101 | 94.3 | 0 | 0 | 0 | 0 | 0 | > 10 | > 10 | > 10 | > 10 | > 10 |
